# Results: patent US20070043034A1, “Chlorine Ion Uptake Modulators and Uses Thereof” (priority 2005, published 2007)
# Molecular target: T1, NKCCl (Rattus norvegicus, UniProt E9PTX9)
# T1 construct: gramicidin perforated patch clamped CA1 pyramidal neuron in an acute hippocampal slice from a P5 rat; from tissue; host or cells: acute hippocampal slices of P3-P6 male Sprague-Dawley rats; CA1 pyramidal neurons
# T1 sequence (E9PTX9 1-1203): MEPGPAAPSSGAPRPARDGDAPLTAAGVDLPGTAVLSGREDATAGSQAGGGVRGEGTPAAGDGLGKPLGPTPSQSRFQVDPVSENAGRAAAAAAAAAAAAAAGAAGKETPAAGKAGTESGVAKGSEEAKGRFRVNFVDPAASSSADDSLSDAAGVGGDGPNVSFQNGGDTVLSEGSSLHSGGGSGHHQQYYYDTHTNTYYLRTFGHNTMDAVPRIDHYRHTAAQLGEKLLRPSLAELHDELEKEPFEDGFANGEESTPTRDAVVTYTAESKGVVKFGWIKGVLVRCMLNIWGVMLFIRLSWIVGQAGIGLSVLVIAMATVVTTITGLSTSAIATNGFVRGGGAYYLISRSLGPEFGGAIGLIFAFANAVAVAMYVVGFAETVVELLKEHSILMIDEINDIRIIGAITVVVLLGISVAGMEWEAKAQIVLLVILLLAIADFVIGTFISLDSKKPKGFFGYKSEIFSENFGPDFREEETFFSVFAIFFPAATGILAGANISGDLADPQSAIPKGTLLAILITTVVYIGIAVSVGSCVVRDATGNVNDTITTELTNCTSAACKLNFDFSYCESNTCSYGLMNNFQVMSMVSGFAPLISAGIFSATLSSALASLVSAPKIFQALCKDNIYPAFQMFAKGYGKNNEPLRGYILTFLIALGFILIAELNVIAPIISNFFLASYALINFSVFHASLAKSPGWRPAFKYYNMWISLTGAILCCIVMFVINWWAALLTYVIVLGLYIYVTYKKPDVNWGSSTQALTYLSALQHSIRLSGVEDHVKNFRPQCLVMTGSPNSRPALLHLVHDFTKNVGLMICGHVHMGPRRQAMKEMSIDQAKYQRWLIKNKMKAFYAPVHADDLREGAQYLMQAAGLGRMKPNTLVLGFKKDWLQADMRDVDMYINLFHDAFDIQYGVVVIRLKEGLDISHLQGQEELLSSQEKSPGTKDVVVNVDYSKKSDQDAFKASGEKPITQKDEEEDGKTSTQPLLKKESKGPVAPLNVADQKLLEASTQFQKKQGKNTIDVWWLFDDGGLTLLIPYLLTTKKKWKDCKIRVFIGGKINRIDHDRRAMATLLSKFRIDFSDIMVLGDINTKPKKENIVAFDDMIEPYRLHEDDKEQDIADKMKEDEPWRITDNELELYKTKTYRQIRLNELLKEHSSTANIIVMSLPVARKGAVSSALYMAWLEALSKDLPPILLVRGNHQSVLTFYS
# Test: Reversal potential of stimulus-evoked GABAA-PSCs in immature CA3 pyramidal cells
# Type: cell-based
# Method: Cell cultures, such as pyramidal cells, can be used to examine the effects of a pharmaceutical composition of the present invention on GABAA receptor activation. In one exemplary method, selective inhibition of NKCCl by a pharmaceutical composition of the present invention, bumetanide, was tested to examine the relationship between chloride accumulation in neurons, GABAA receptor activation and NKCC1. Specifically, the reversal potential of electrical stimulus evoked GABAA-receptor mediated post-synaptic currents (GABAA-PSCS) in immature P4-P6 CA3 pyramidal cells of the hippocampus was examined in the presence or absence of bumetanide. Electrical stimulation of the stratum radiatum (7 V, 30 us duration) evoked in control conditions a synaptic response that reversed at −42.4±1.7 mV (n=6) and was close to the reversal potential of spontaneous GABAA-PSCS (−46.1±0.7 mV; n=6, p=0.07). Examples of stimulus evoked postsynaptic currents at different holding potentials for individual pyramidal cell and corresponded current-voltage (I-V) relationship are shown in FIG. 1A. […] In presence of bumetanide, stimulus evoked GABAA-PSCs reversed at −46.1±1.9 mV (n=6, p=0.17). […] This in vitro system can be used to test any of the pharmaceutical compositions of the present invention for modulation of GABAA receptor activation. […]
smiles,measurement,setting,value
"CCCCNc1cc(C(=O)O)cc(S(N)(=O)=O)c1Oc1ccccc1 [bumetanide, 3-(aminosulfonyl)-5-(butylamino)-4-phenoxybenzoic acid]",shift in reversal potential of GABAA-PSCs,bumetanide 10 μM application,negative shift
same,reversal potential of stimulus evoked GABAA-PSCs,"bumetanide 10 μM, P4-P6 CA3 pyramidal cells, n=6, p=0.17, control −42.4±1.7 mV",−46.1±1.9 mV
